Our source for the IC50 values is patent publication US12581252B2, “Substituted pyrrolo[3,4-b]pyridines as PI3K-α inhibitors” (Relay Therapeutics, Inc., priority 2020, dated 2026).

For orientation: IC50 means the concentration at which inhibition is half-maximal. Read a low IC50 as inhibition by little substance.

The assay deals with H1047R PIK3CA enzyme (Homo sapiens, UniProt P42336, H1047R). The experiment in a line: ADP-Glo Biochemical PIK3CA Kinase Assay. As for the experimental part: Compounds to be assayed were plated in 16 doses of 1:2 serial dilutions (20 nL volume each well) on a 1536-well plate, and the plate warmed to room temperature. […] To the well was added 1 μL of 200 μM ATP and 20 μM of diC8-PIP2 in Substrate Assay Buffer (50 mM HEPES pH7.4, 50 mM NaCl, 5 mM DTT and 0.03% CHAPS) to start the reaction, and the plate was shaken for 10 seconds, then spun briefly at 1500 rpm, and then incubated for 60 minutes at room temperature. The reaction was stopped by adding 2 μL of ADP-Glo reagent (Promega), and spinning briefly at 1500 rpm, and then incubating for 40 minutes. ADP-Glo Detection reagent (Promega) was added and the plate spun briefly at 1500 rpm, then incubated for 30 minutes.
Sequence of H1047R PIK3CA enzyme (P42336 whole entry H1047R): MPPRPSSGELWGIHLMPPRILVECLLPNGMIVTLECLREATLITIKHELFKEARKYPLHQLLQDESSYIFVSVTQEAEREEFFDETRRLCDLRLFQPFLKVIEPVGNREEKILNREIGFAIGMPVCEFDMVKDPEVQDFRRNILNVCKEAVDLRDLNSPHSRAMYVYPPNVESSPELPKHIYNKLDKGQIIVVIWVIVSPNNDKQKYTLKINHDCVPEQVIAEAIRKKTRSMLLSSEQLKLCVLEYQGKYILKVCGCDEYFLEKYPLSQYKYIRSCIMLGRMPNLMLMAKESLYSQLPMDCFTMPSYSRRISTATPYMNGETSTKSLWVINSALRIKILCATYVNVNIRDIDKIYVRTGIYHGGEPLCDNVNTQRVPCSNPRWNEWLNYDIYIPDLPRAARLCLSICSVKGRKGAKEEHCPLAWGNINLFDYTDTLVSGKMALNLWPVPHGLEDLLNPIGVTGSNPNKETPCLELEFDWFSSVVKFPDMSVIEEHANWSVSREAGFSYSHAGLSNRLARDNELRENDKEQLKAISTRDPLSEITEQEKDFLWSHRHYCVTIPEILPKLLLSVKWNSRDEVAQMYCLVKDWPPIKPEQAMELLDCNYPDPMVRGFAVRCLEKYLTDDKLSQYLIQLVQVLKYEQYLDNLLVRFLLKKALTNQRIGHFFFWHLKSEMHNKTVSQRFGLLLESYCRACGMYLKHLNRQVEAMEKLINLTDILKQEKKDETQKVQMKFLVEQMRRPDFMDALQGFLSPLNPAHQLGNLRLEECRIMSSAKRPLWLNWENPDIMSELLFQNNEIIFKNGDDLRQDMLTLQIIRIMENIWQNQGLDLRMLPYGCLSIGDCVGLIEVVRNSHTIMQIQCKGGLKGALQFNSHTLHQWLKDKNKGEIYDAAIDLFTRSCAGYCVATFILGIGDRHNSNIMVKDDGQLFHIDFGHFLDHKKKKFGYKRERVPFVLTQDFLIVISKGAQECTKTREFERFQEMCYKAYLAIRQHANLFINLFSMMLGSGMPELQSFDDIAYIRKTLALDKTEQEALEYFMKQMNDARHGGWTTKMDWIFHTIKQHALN
Sequence of H1047R PIK3CA enzyme (P27986 whole entry partner): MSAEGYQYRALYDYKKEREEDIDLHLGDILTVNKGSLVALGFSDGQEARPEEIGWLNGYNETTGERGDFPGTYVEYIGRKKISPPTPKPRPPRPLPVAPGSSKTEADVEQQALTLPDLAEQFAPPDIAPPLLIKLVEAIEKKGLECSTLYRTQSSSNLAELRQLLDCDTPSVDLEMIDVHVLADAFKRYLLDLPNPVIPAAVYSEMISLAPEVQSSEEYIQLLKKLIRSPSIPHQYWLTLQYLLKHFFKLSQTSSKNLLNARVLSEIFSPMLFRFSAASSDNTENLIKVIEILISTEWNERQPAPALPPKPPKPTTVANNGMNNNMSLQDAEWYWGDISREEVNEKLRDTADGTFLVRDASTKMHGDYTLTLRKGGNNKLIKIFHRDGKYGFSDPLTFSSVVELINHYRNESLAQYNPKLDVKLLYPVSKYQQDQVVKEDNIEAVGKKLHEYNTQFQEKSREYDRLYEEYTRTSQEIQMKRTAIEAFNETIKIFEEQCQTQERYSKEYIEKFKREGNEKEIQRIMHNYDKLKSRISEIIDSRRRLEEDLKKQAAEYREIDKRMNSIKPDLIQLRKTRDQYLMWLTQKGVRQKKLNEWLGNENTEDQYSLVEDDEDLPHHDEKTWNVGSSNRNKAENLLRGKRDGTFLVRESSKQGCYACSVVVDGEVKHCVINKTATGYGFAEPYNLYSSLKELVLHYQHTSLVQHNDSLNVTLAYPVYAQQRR
Background: ADP-Glo first removes unused ATP, then detects ADP through luciferase.
`O=C(Nc1cc(Cn2ccnc2)cc2c1C(c1cc(F)ccc1Cl)NC2=O)c1cc(F)cc(C(F)(F)F)c1` (stereo not drawn) [Compound I-1430] showed an IC50 not above 100 nM.

Regarding `O=C(Nc1cc(Br)cc2c1[C@@H](c1cc(Cl)cc(F)c1F)NC2=O)c1cc(F)cc(C(F)(F)F)c1` [Compound I-787], the IC50 is 1000 to 10000 nM.

`O=C(Nc1cc(-c2cn3ccnc3cn2)cc2c1[C@H](c1cc(F)ccc1Cl)NC2=O)c1cc(F)cc(C(F)(F)F)c1` [Compound I-1330] gave an IC50 not above 100 nM.

Molecule `O=C(Nc1cccc2c1C(c1cc(F)ccc1Cl)NC2=O)c1cc(Cl)cc(C(F)(F)F)c1` (stereo not drawn) [Compound I-725] had a half-inhibitory concentration (IC50) of 500 to 1000 nM.

Molecule `COc1cc(F)c(F)c(C(=O)Nc2cccc3c2C(c2ccccc2C)NC3=O)c1` (stereo not drawn) [Compound I-341] displayed a concentration for half-maximal inhibition (IC50) of 10000 to 100000 nM.

Consider `O=C(CC1CCc2ccccc21)Nc1cc(Br)cc2c1C(c1cc(F)ccc1Cl)NC2=O` (stereo not drawn) [Compound I-599], for which the IC50 was 10000 to 100000 nM.

Regarding `O=C(Nc1cc(B(O)O)cc2c1C(c1cc(F)ccc1Cl)NC2=O)c1cc(F)cc(Cl)c1` (stereo not drawn) [Compound I-385], the 50% inhibitory concentration (IC50) was not above 100 nM.

For `O=C(Nc1cc(Br)cc2c1C(c1cc(F)ccc1Cl)NC2=O)NC12CC3CC(CC(C3)C1)C2` (stereo not drawn) [Compound I-1257], the IC50 fell in the range of 100 to 500 nM.

Consider `Cc1ccccc1C1NC(=O)c2cccc(NC(=O)c3nscc3-c3ccccc3)c21` (stereo not drawn) [Compound I-413], for which the IC50 is 1000 to 10000 nM.

For the molecule `Cc1ncc(-c2cc(NC(=O)c3cc(F)cc(C(F)(F)F)c3)c3c(c2)C(=O)NC3c2cc(F)ccc2Cl)c(C)n1` (stereo not drawn) [Compound I-1092], the IC50 lay in the range of 100 to 500 nM.

Turning to `CN1C(=O)CC[C@H]1COc1cc(NC(=O)c2cc(F)cc(C(F)(F)F)c2)c2c(c1)C(=O)N[C@@H]2c1cc(F)ccc1Cl` (single isomer, unassigned) [Compound I-1568], the concentration for half-maximal inhibition (IC50) lay within 1000 to 10000 nM.

`O=C1N[C@@H](c2cc(F)ccc2Cl)c2c(NC(=O)[C@H]3C[C@@H](O)C[C@@H](C(F)(F)F)C3)cc(Br)cc21` (single isomer, unassigned) [Compound I-2273] had an IC50 of 10000 to 100000 nM.

For `O=C1NC(c2cc(F)ccc2Cl)c2c(Nc3nccc4ccccc34)cc(Br)cc21` (stereo not drawn) [Compound I-762], the IC50 was in the range of 1000 to 10000 nM.

As to `Cn1cc(-c2ccc(C3NC(=O)c4cccc(NC(=O)c5cc(F)cc(C(F)(F)F)c5)c43)c(Cl)c2)cn1` (stereo not drawn) [Compound I-425], the IC50 lay in the range of 10000 to 100000 nM.

Molecule `O=C1NC(c2cc(F)ccc2Cl)c2c1cc(-c1ccc3ncnn3c1)cc2N1CCN(C(=O)C(F)(F)F)CC1` (stereo not drawn) [Compound I-2046] displayed an IC50 of 10000 to 100000 nM.

Molecule `COc1cc(F)cc(C(=O)Nc2cc(Br)cc3c2C(c2cc(F)ccc2Cl)NC3=O)c1` (stereo not drawn) [Compound I-800] registered an IC50 of 500 to 1000 nM.

On to `CC1(Nc2cc(NC(=O)c3cc(F)cc(C(F)(F)F)c3)c3c(c2)C(=O)N[C@H]3c2cc(F)ccc2Cl)COC1` [Compound I-813], for which the IC50 was not above 100 nM.

`O=C(Nc1cc(Br)cc2c1C(c1cc(F)ccc1Cl)NC2=O)c1cc(F)cc(S(F)(F)(F)(F)F)c1` (stereo not drawn) [Compound I-774] gave an IC50 not above 100 nM.

The molecule `O=C1N[C@H](c2cc(F)ccc2Cl)c2c(NC(=O)N3C[C@@H](O)c4cc(F)ccc43)cc(-n3cccn3)cc21` (single isomer, unassigned) [Compound I-2365] returned an IC50 of 500 to 1000 nM.

The molecule `CNC(=O)c1ccc(NC(=O)c2csc3ccccc23)c2c1C(=O)NC2c1ccccc1C` (stereo not drawn) [Compound I-150] gave an IC50 not above 100 nM.

In the case of `O=C(Nc1cc(Br)c(Cl)c2c1C(c1cc(F)ccc1Cl)NC2=O)c1cc(F)cc(C(F)(F)F)c1` (stereo not drawn) [Compound I-847], the IC50 is not above 100 nM.

On to `N#C[C@H]1C[C@@H](Oc2cc(NC(=O)c3cc(F)cc(C(F)(F)F)c3)c3c(c2)C(=O)N[C@H]3c2cc(F)ccc2Cl)C1` [Compound I-1334], for which the IC50 is not above 100 nM.

The molecule `O=C(Cc1cc(F)ccc1C(F)(F)F)Nc1cc(Br)cc2c1C(c1cc(F)ccc1Cl)NC2=O` (stereo not drawn) [Compound I-560] returned an IC50 of 1000 to 10000 nM.

`O=C(Nc1cc(Nc2cn[nH]c2)cc2c1[C@H](c1cc(F)ccc1Cl)NC2=O)c1cc(F)cc(C(F)(F)F)c1` [Compound I-1258] displayed an IC50 not above 100 nM.

`O=C(Nc1cc(-c2cn3ncnc3cn2)cc2c1C(c1cc(F)ccc1Cl)NC2=O)c1cc(F)cc(Cl)c1` (stereo not drawn) [Compound I-2267] gave an IC50 of 1000 to 10000 nM.

Consider `CN1CCN(Cc2cc(NC(=O)c3cc(F)cc(C(F)(F)F)c3)c3c(c2)C(=O)NC3c2cc(F)ccc2Cl)CC1=O` (stereo not drawn) [Compound I-1235], for which the IC50 lay within 100 to 500 nM.

Molecule `O=C(Nc1cc(Br)cc2c1C(c1cc(F)ccc1Cl)NC2=O)c1cccc(C2CC2)c1` (stereo not drawn) [Compound I-569] gave an IC50 of 1000 to 10000 nM.

For `O=C(Nc1cc(-c2ccc3nnc(C(F)F)n3c2)cc2c1C(c1cc(F)ccc1Cl)NC2=O)c1cc(F)cc(C(F)(F)F)c1` (stereo not drawn) [Compound I-1840], the IC50 was not above 100 nM.

In turn, `CN1C(=O)CC[C@@H]1COc1cc(NC(=O)c2cc(F)cc(C(F)(F)F)c2)c2c(c1)C(=O)N[C@@H]2c1cc(F)ccc1Cl` (single isomer, unassigned) [Compound I-1569] yielded an IC50 of 10000 to 100000 nM.

The molecule `O=C1NCC(c2cc(NC(=O)c3cc(F)cc(C(F)(F)F)c3)c3c(c2)C(=O)NC3c2cc(F)ccc2Cl)O1` (stereo not drawn) [Compound I-1359] registered an IC50 not above 100 nM.

Molecule `N#Cc1cccc(S(=O)(=O)Cc2cc(NC(=O)c3cc(F)cc(C(F)(F)F)c3)c3c(c2)C(=O)N[C@H]3c2cc(F)ccc2Cl)c1` [Compound I-1594] had an IC50 not above 100 nM.

On to `Cc1ncc(-c2cc(NC(=O)c3cc(F)cc(C(F)(F)F)c3)c3c(c2)C(=O)N[C@@H]3c2cc(F)ccc2Cl)cn1` [Compound I-783], for which the IC50 was in the range of 1000 to 10000 nM.

Take `N#CCCc1cc(NC(=O)N2C[C@@H](O)c3cc(F)ccc32)c2c(c1)C(=O)N[C@H]2c1cc(F)ccc1Cl` (single isomer, unassigned) [Compound I-2347]: the IC50 was in the range of 100 to 500 nM.

As for `O=C1NC(c2cc(F)ccc2Cl)c2c(NC(=O)c3cc(Cl)cc4cccnc34)cc(Br)cc21` (stereo not drawn) [Compound I-802], the IC50 lay in the range of 10000 to 100000 nM.

`Cn1ncc(C2NC(=O)c3cccc(NC(=O)c4nsc5ccccc45)c32)c1C(F)(F)F` (stereo not drawn) [Compound I-85] came in with an IC50 of 1000 to 10000 nM.

Regarding `Cn1cc(-c2cc(NC(=O)c3nsc4ccccc34)c3c(n2)C(=O)N[C@@H]3c2ccccc2Cl)cn1` [Compound I-113], the IC50 was in the range of 100 to 500 nM.

Molecule `CC(C)(O)c1cc(NC(=O)c2nsc3ccccc23)c2c(n1)C(=O)NC2c1ccccc1Cl` (stereo not drawn) [Compound I-250] gave an IC50 not above 100 nM.

The molecule `O=C(Nc1cc(O)cc2c1C(c1cc(F)ccc1Cl)NC2=O)c1cc(F)cc(C(F)(F)F)c1` (stereo not drawn) [Compound I-363] showed an IC50 not above 100 nM.

Turning to `Cc1c(F)cccc1[C@@H]1NC(=O)c2cc(Br)cc(NC(=O)c3cc(F)cc(C(F)(F)F)c3)c21` [Compound I-750], the concentration for half-maximal inhibition (IC50) fell in the range of 100 to 500 nM.

On to `O=C(Nc1cc(-n2ccnc2)cc2c1[C@H](c1cc(F)ccc1Cl)NC2=O)c1cc(F)cc(C(F)(F)F)c1` (stereo in doubt) [Compound I-1126], for which the IC50 is not above 100 nM.

`O=C(Nc1cc(/N=C2/N[C@@H](C(F)(F)F)CO2)cc2c1[C@@H](c1cc(F)ccc1Cl)NC2=O)c1cc(F)cc(C(F)(F)F)c1` (single isomer, unassigned) [Compound I-2390] registered an IC50 of 1000 to 10000 nM.

`O=C1N[C@@H](c2cc(F)ccc2Cl)c2c(NC(=O)[C@@H]3CC[C@H](O)C3)cc(Br)cc21` (single isomer, unassigned) [Compound I-2104] came in with an IC50 of 10000 to 100000 nM.
